Data set [1] addresses T1, Mushroom tyrosinase (Agaricus bisporus) (UniProt O42713+Q00024+C7FF04+C7FF05). Description: Inhibition of cresolase activity of mushroom tyrosinase at 0 to 450 uM using 18 to 61 uM of 4-[(4-Methylphenyl) azo]-phenol as substrate.
Data set [2] deals with T1, Mushroom tyrosinase (Agaricus bisporus). Description: Activation of cresolase activity of mushroom tyrosinase at <150 uM using 4-[(4-Methylphenyl) azo]-phenol as substrate measured after 15 mins by spectrophotometric method.
Data set [3] has the same target. Description: Activation of cresolase activity of mushroom tyrosinase at <= 150 uM after 15 mins using 4-[(4-Methylphenyl) azo]-phenol as substrate relative to untreated control.
Data set [4] shares this target. Description: Activation of cresolase activity of mushroom tyrosinase assessed as inverse of activation constant after 15 mins using 4-[(4-Methylphenyl) azo]-phenol as substrate.
For data set [5] the target is unchanged. Nature of the data set: Activation of cresolase activity of mushroom tyrosinase at 18 uM using 4-[(4-Methylphenyl) azo]-phenol as substrate by Dixon plot analysis.
Data set [6] shares this target. Description: Activation of cresolase activity of mushroom tyrosinase at 50 to 150 uM using 4-[(4-Methylphenyl) azo]-phenol as substrate by Lineweaver-Burk plot analysis.
The target is the same in data set [7]. Nature of the data set: Activation of cresolase activity of mushroom tyrosinase assessed as dissociation constant for substrate after 15 mins using 4-[(4-Methylphenyl) azo]-phenol as substrate.
Another data set has as its target Mushroom tyrosinase (Agaricus bisporus, UniProt O42713+Q00024+C7FF04+C7FF05). Nature of the data set: Inhibition of cresolase activity of mushroom tyrosinase using 4-[(4-Methylphenyl) azo]-phenol as substrate measured after 15 mins by spectrophotometric method.
Data set [8] deals with T1, Mushroom tyrosinase (Agaricus bisporus). Nature of the data set: Activation of cresolase activity of mushroom tyrosinase assessed as activation constant after 15 mins using 4-[(4-Methylphenyl) azo]-phenol as substrate.
Data set [9] shares this target. Nature of the data set: Inhibition of cresolase activity of mushroom tyrosinase at >150 uM using 4-[(4-Methylphenyl) azo]-phenol as substrate measured after 15 mins by spectrophotometric method.
The next data set deals with O=C(O)/C=C/c1ccccc1. Description: (§1) Activation of cresolase activity of mushroom tyrosinase assessed as Vmax after 15 mins using 4-[(4-Methylphenyl) azo]-phenol as substrate. The note with it: Agaricus bisporus.
The next data set concerns O=C(O)c1ccccc1C(=O)O. The description is as §1. The settings on record: Agaricus bisporus.
Data set [10] has as its target T1, Mushroom tyrosinase (Agaricus bisporus). Description: Activation of cresolase activity of mushroom tyrosinase at >5 uM after 15 mins using 4-[(4-Methylphenyl) azo]-phenol as substrate.
Data set [11] has the same target. Nature of the data set: Mixed type activation of cresolase activity of mushroom tyrosinase using 4-[(4-Methylphenyl) azo]-phenol as substrate by Dixon plot analysis.
Data set [12] has the same target. Nature of the data set: Mixed type activation of cresolase activity of mushroom tyrosinase at 5 to 10.5 uM using 4-[(4-Methylphenyl) azo]-phenol as substrate by Lineweaver-Burk plot analysis.
The target is the same in data set [13]. Nature of the data set: Inhibition of cresolase activity of mushroom tyrosinase at 0 to 10.5 uM using 23 to 50.05 uM of 4-[(4-Methylphenyl) azo]-phenol as substrate.
The target is the same in data set [14]. Nature of the data set: Activation of cresolase activity of mushroom tyrosinase at <= 10 uM after 15 mins using 4-[(4-Methylphenyl) azo]-phenol as substrate relative to untreated control.
The target is the same in data set [15]. Nature of the data set: Inhibition of cresolase activity of mushroom tyrosinase at <5 uM using 4-[(4-Methylphenyl) azo]-phenol as substrate.

Calls of active or inactive are those of the source. The calls are words filed in the database; no cut-off is given here.

The source of these data is ChEMBL document CHEMBL3865793, “Non-specific binding sites help to explain mixed inhibition in mushroom tyrosinase activities” (Eur J Med Chem, 2016).

Mushroom tyrosinase (Agaricus bisporus) (from UniProt O42713+Q00024+C7FF04+C7FF05), sequence (C7FF05 whole entry, looked up): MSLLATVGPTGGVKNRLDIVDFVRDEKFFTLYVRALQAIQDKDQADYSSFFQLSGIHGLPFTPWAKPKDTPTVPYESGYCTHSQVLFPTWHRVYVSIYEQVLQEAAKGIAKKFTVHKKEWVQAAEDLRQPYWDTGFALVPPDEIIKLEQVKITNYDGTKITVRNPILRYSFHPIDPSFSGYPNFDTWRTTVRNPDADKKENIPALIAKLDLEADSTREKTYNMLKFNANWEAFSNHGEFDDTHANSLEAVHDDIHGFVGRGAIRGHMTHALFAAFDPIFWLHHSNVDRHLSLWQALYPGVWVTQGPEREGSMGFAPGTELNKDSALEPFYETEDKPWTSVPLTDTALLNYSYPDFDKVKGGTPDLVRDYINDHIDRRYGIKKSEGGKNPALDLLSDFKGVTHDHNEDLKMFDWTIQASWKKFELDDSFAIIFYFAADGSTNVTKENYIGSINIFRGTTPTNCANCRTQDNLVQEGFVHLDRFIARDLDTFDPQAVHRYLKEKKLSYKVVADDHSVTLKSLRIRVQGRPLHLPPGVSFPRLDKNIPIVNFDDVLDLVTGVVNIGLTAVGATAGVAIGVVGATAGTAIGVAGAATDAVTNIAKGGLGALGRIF
Mushroom tyrosinase (Agaricus bisporus) (from UniProt O42713+Q00024+C7FF04+C7FF05), sequence (C7FF04 whole entry, looked up): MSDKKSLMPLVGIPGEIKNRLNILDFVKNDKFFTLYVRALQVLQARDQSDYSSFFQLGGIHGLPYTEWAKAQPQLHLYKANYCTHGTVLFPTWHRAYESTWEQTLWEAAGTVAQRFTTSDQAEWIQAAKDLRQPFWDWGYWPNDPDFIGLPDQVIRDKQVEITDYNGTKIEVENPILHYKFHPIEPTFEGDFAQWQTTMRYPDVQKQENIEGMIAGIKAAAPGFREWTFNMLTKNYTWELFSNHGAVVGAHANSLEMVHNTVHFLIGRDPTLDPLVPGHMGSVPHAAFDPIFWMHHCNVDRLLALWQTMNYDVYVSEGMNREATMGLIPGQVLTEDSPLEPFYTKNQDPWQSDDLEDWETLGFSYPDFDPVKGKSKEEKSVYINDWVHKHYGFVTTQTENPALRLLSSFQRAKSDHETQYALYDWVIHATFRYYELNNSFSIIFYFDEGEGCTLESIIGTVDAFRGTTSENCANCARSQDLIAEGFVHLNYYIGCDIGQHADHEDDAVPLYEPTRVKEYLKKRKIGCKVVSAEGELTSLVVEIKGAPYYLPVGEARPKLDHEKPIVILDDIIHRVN
Mushroom tyrosinase (Agaricus bisporus) (from UniProt O42713+Q00024+C7FF04+C7FF05), sequence (Q00024 whole entry, looked up): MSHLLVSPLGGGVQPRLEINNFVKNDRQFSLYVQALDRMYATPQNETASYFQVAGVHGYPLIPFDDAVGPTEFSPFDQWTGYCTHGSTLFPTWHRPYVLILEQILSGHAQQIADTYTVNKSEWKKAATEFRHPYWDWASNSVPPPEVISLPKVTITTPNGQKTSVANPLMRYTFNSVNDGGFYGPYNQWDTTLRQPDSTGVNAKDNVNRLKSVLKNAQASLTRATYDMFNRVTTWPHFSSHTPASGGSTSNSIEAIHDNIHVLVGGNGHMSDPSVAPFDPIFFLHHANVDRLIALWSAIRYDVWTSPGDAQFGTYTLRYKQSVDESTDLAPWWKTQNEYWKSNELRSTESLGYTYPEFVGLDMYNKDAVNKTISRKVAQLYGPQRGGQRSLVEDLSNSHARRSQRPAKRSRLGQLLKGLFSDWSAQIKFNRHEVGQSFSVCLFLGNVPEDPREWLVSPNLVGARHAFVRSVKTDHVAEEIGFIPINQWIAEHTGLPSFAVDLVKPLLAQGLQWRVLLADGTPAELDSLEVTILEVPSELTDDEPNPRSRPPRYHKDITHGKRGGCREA
Mushroom tyrosinase (Agaricus bisporus) (from UniProt O42713+Q00024+C7FF04+C7FF05), sequence (O42713 whole entry, looked up): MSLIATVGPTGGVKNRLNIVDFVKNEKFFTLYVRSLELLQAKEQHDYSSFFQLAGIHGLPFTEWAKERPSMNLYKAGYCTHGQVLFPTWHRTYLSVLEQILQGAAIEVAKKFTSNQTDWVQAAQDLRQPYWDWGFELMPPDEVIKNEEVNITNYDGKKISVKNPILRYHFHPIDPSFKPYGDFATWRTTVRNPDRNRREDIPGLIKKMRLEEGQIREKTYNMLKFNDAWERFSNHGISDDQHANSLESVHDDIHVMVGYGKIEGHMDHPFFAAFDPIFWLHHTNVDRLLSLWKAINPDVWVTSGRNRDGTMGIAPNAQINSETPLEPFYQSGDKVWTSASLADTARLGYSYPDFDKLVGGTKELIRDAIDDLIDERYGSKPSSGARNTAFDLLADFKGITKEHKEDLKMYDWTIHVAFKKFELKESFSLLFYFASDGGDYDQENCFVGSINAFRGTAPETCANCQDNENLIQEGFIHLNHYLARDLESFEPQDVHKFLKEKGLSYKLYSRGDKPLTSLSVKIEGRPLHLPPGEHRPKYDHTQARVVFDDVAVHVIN

With `O=C(O)c1ccccc1C(=O)O` [PHTHALIC ACID], the inhibition result in [1] and in data set [9] was “Active” throughout. Moreover, the result in data set [2], in [5] and in data set [6] was Active. For the same molecule, the Activity in data set [3] lay in the range of 11 to 23%. Besides, the Ka in data set [4] came to 91.3 mM⁻¹. In addition, the K in data set [7] amounted to 67.2 µM. Also, on Mushroom tyrosinase, the IC50 was determined as 271.79 µM. The inhibitory constant (Ki) on Mushroom tyrosinase was 100 µM. The KA in data set [8] was determined as 10.9 µM.
For “Mushroom tyrosinase (Agaricus bisporus) (from UniProt O42713+Q00024+C7FF04+C7FF05)”, the Vmax came out at 7.9 µM/min in the data set with O=C(O)/C=C/c1ccccc1 and 14.5 µM/min with O=C(O)c1ccccc1C(=O)O.
As for `O=C(O)/C=C/c1ccccc1`, in data set [4], the Ka amounted to 185 mM⁻¹. Moreover, the outcome in [10], in [11] and in data set [12] was Active. In addition, the inhibition result in data set [13] and in data set [15] was “Active” each time. For the same molecule, the KA in data set [8] amounted to 5.41 µM. In data set [14], the fold change (FC) was found to be 2.

A word on the IC50: it is the midpoint of a concentration-inhibition curve. The low end stands for higher potency, the high end for lower potency. For orientation: Ki means the equilibrium dissociation constant of an inhibitor or competing ligand from its target. Read a high Ki as lower affinity. A word on the Vmax: it is the rate approached at saturating substrate.
